Patent US20180140572A1, “COMPOSITIONS COMPRISING A CANCER STEMNESS INHIBITOR AND AN IMMUNOTHERAPEUTIC AGENT FOR USE IN TREATING CANCER” (Boston Biomedical, Inc., priority 2015, published 2018)

What was measured:
PD-L1 [1] = experiment: PD-L1 expression in tumor cells in the CT26 model; assay type: in vivo, mouse
Source text: (§1) All BALB/c mice (Taconic, Hudson, N.Y., USA) were housed in Association for Assessment and Accreditation of Laboratory Animal Care approved facilities in static microisolator cages. Murine MSS-status colon carcinoma CT26 cells (ATCC CRL-2639) and murine breast carcinoma cells 4T1 (ATCC CRL-2539) were purchased from American Type Culture Collection (ATCC, Manassas, Va., USA), and grown in RPMI-1640 medium (ATCC) supplemented with 10% heat-inactivated fetal calf serum. After harvesting during exponential growth, tumors were initiated by subcutaneously implanting 3×10^5 CT26 tumor cells into the right dorsal flank of each 8-12 week old female BALB/c mouse. […] Body weight and clinical signs were monitored throughout the course of the treatment in accordance with the Institutional Animal Care and Use Committee approved protocols. Drug efficacy was analyzed by measuring tumor volume in mm^3 calculated by multiplying 0.5×width^2×length. […]
(§2) At the end of treatment, tumors were harvested from euthanized mice. […] After mounting in ProLong mounting medium containing DAPI (Invitrogen), the slides were examined on a Zeiss Axio Imager M2 upright fluorescence microscope with a 20× objective and analyzed with Zen software.

CD8^+ T cells = experiment: Tumor infiltrating CD8+ T cells in Apc^Min/+ mouse model of colon cancer (immunofluorescence); assay type: in vivo, Apc^Min/+ C57BL/6J mice; conditions: BBI608 200 mg/kg p.o. q.d. 4 days, vs control group
Method: (§3) At the end of treatment, tumors were harvested from euthanized mice. Part of the dissected tumors were fixed overnight in 3.7% or 10% neutral buffered formaldehyde at 4° C., and then paraffin embedded, cut to 4-5 micron sections, and affixed onto positively charged slides. After baking and deparaffinization, the slides with tumor or control tissues were incubated in a 10 mM sodium citrate solution pH=6.0 for antigen retrieval at 98° C. […] After mounting in ProLong mounting medium containing DAPI (Invitrogen), the slides were examined on a Zeiss Axio Imager M2 upright fluorescence microscope with a 20× objective and analyzed with Zen software.
All animals were housed in Association for Assessment and Accreditation of Laboratory Animal Care-approved facilities in static microisolator cages. […] Body weight and clinical signs were monitored throughout the course of the treatment. […]
CD8^+ levels were analyzed by immunofluorescence.

p-STAT3 = p-STAT3 staining of CT26 tumors after treatment; assay type: in vivo, mouse; conditions: vs control group
Source text: as §1, §2

STAT3 pathway = conditions: read-out: STAT3 pathway activity cellular IC50; cited from earlier work
NANOG, CD44, and CD133 = experiment: Stemness marker expression in CT26 tumors (immunofluorescence); assay type: in vivo, mouse; conditions: basal and anti-PD-1 antibody-induced
Method: At the end of treatment, tumors were harvested from euthanized mice. Part of the dissected tumors were fixed overnight in 3.7% or 10% neutral buffered formaldehyde at 4° C., and then paraffin embedded, cut to 4-5 micron sections, and affixed onto positively charged slides. After baking and deparaffinization, the slides with tumor or control tissues were incubated in a 10 mM sodium citrate solution pH=6.0 for antigen retrieval at 98° C. Afterwards, slides were probed with primary antibodies against P-STAT3 (Tyr705) (rabbit, Cell Signaling, 1:100), β-CATENIN (mouse, Santa Cruz, 1:400), IL-6 (mouse, Novus Biol., 1:100), PD-L1 (rabbit, Cell Signaling, 1:100), PCNA (mouse, Santa Cruz, 1:5000), CD8a (rabbit, Santa Cruz, 1:30), CD44 (rat, BioLegend, 1:50), CD44 (mouse, Cell Signaling, 1:100), CD133 (mouse, Miltenyi, 1:100), IDO1 (mouse, Millipore 1:100), or/and CD3 (rabbit, Abcam, 1:100) at 4° C. overnight, and then AlexaFluor fluorescent dye-conjugated secondary antibodies (Invitrogen, 1:300 or 1:500) at room temperature for one hour. After mounting in ProLong mounting medium containing DAPI (Invitrogen), the slides were examined on a Zeiss Axio Imager M2 upright fluorescence microscope with a 20× objective and analyzed with Zen software.

IDO1 [2] = experiment: Endogenous IDO1 mRNA in SKOV3 cells (qPCR); assay type: cell-based; conditions: 6 or 24 hour, 1 μM or 2 μM, normalized to GAPDH
Source text: Specifically, RNA was isolated, reverse transcribed, and the cDNA was used in a qPCR assay to determine the mRNA levels for IDO1. Data was normalized to GAPDH.

B-cell proliferation = B-cell proliferation in lymph node adjacent to xenograft B16F10 tumor (PCNA staining); assay type: in vivo, mouse
Source text: The tissues were stained with PCNA.

IDO1 [3] = experiment: IDO1 expression in colorectal cancer xenograft model (SW480); assay type: in vivo, mouse; conditions: SW480 xenograft, 0, 1, 2, 4, 8, and 24 hours
Method: FIG. 13A and FIG. 13B show an exemplary reduction in IDO1 expression at 0, 1, 2, 4, 8, and 24 hours after treatment of SW480 xenograft colorectal cancer cells (FIG. 13A) and SKOV3 xenograft ovarian cancer cells (FIG. 13B) with an exemplary cancer sternness inhibitor, e.g., BBI608, according to certain embodiments of the present disclosure.
as §3

PD-L1 [4] = experiment: IFNγ-induced PD-L1 expression in CT26 cells (Western blotting); assay type: cell-based, mouse; conditions: 100 ng/ml IFNγ, 24 hours, 1 μM BBI608
Method: 3×10^5 CT26 cells in 6-well plated were treated with 100 ng/ml IFNγ for 24 hours at the presence of control DMSO or 1 μM BBI608. Cells were washed twice with ice-cold PBS and lysed in lysis buffer [50 mM Hepes (pH 7.5), 1% Nonidet P-40, 150 mM NaCl, 1 mM EDTA, and 1× protease and phosphatase inhibitor mixture (EMD Millipore)]. Soluble protein (20 μg) was separated by SDS/PAGE and transferred to nitrocellulose membranes. Primary antibodies against P-STAT3 (Y705), PD-L1, and ACTIN (Sigma) were used in this study. The antigen-antibody complexes were visualized by enhanced chemiluminescence (BioRad).

[5] = test system: IL-6 and other STAT3 target genes; experiment: STAT3 target gene expression in HeLa cells; assay type: cell-based
[6] = test system: tumor-infiltrating T cells (TILs); experiment: Tumor-infiltrating T cells in CT26 tumors (CD3 immunofluorescence); assay type: in vivo, mouse; conditions: vs control tumors
Source text: as §1, §2

IL-6 = IL-6 protein production by HeLa cells; assay type: cell-based; conditions: different concentrations

Question: Which “PD-L1 expression in tumor cells” value (PD-L1 [1]) does the source give for `CC(=O)c1cc2c(o1)C(=O)c1ccccc1C2=O` [BBI608, 2-acetylnaphtho[2,3-b]furan-4,9-dione] here?
Answer: The value was “reduced”.

Question: What about the “number of tumor infiltrating CD8^+ T cells” value (CD8^+ T cells) of the same compound?
Answer: Its value is “increased the number of tumor infiltrating CD8^+ T cells significantly”.

Question: What about the “p-STAT3 level in CT26 tumors” value (p-STAT3) of the same compound?
Answer: The value was “reduced p-STAT3 levels”.

Question: And the IC50 (STAT3 pathway)?
Answer: The IC50 was ~250 nM.

Question: What about the “NANOG, CD44, and CD133 expression” value (NANOG, CD44, and CD133) of the same compound?
Answer: The value was “reduced”.

Question: What about the “endogenous IDO1 expression (mRNA)” value (IDO1 [2]) of the same compound?
Answer: The value was “inhibited”.

Question: And the “B-cell proliferation in lymph node adjacent to tumor” value (B-cell proliferation)?
Answer: Its value is “multiple centers of B-cell proliferation”.

Question: And the IDO1 expression level (IDO1 [3])?
Answer: The IDO1 expression level was “reduced IDO1 expression level in a time-dependent manner”.

Question: And the “IFNγ-induced PD-L1 expression” value (PD-L1 [4])?
Answer: The value was “reduced”.

Question: What about the “IL-6 and other STAT3 target genes expression” value [5] of the same compound?
Answer: The value was “downregulated”.

Question: And the “number of tumor-infiltrating T cells (TILs)” value [6]?
Answer: The value was “tended to increase”.

Question: What about the IL-6 protein production (IL-6) of the same compound?
Answer: Its IL-6 protein production is “downregulated”.
